Publication PMC8443589, “Modelling human liver fibrosis in the context of non-alcoholic steatohepatitis using a microphysiological system” (Communications Biology, 2021)

System: liver MPS NASH model (PHH, KC and HSC co-cultures)
Assay: Cue study: secreted cytokines and chemokines (Luminex) with varying NPC number and added cues (Fig 5a, 5b)
Format: cell-based, human
Settings: Fat media + cue
From the text: There is only limited understanding of the pathogenic drivers of NASH and their interaction, principally due to a lack of translational models that are amenable to detailed molecular analysis[2],[34]. Here, a systems biology ‘cue-signal-analysis’ paradigm[35],[36] was utilised to produce large factorial datasets to enable the identification of molecular pathways of importance. […] To create varying set ups of the NASH microtissues we created hepatocyte microtissues in the MPS with high numbers of NPC (60,000 KC and HSC—equivalent to 10% of microtissue population) and low numbers of NPCs (6000 KC and HSC—equivalent to 1% of microtissue), representing physiological and non-physiological cell ratios respectively. Next, we took these different microtissues and cultured them in media with or without FFA. Finally, we supplemented the media with lipopolysaccharide (LPS), TGFβ, fructose or cholesterol either as single ‘cues’, in pairs or all together (Fig. 4a). ‘Cues’ were selected for clinical association with NASH. LPS, is a pleiotropic inflammatory molecule, it is proposed to reach the liver via the hepatic portal vein after release from the gastrointestinal tract, contributing to disease progression[37],[38]. TGFβ has been extensively studied in relation to fibrosis due to its regulation of genes controlling collagen and matrix-modifying enzymes. Fructose is a key substrate for de-novo lipogenesis, a process that has been identified as a key event in lipid accumulation within NAFLD patients. Finally, cholesterol accumulation has also been linked to NASH disease aetiology.
Assessment of gene expression changes was supplemented by assessment of the secretome produced by NASH microtissues in the MPS after exposure to the various cues. Increased pro-inflammatory cytokine secretion is a defining characteristic in NASH patients, so we conducted a Luminex cytokine array covering 42 different biomarkers, cytokines and chemokines secreted into the culture media of the different microtissues at multiple time points. […]

TGF-β
EGF relative expression (z-transformation) (Day 6): -0.6947 | Eotaxin relative expression (z-transformation) (Day 6): -0.9288 | FGF-2 relative expression (z-transformation) (Day 6): 0.0308 | Fit-3L relative expression (z-transformation) (Day 6): -0.07468 | Fractalkine relative expression (z-transformation) (Day 6): -0.6368 | G-CSF relative expression (z-transformation) (Day 6): 0.1243 | GRO relative expression (z-transformation) (Day 6): -0.2928 | IFN-a2 relative expression (z-transformation) (Day 6): 0.07826 | IL-1RA relative expression (z-transformation) (Day 6): -0.2716 | IL-4 relative expression (z-transformation) (Day 6): -0.7382 | IL-6 relative expression (z-transformation) (Day 6): 0.4237 | IL-7 relative expression (z-transformation) (Day 6): -0.09812 | IL-8 relative expression (z-transformation) (Day 6): 0.2731 | IL-15 relative expression (z-transformation) (Day 6): 0.3864 | IP-10 relative expression (z-transformation) (Day 6): -0.5991 | MCP-1 relative expression (z-transformation) (Day 6): -0.1254 | MCP-3 relative expression (z-transformation) (Day 6): -0.3354 | MDC relative expression (z-transformation) (Day 6): 1.089 | MIP-1a relative expression (z-transformation) (Day 6): -0.3189 | MIP-1b relative expression (z-transformation) (Day 6): -0.5904 | TNFa relative expression (z-transformation) (Day 6): -0.3323 | VEGF relative expression (z-transformation) (Day 6): 0.1644 | EGF relative expression (z-transformation) (Day 11): 0.4971 | Eotaxin relative expression (z-transformation) (Day 11): -0.7902 | FGF-2 relative expression (z-transformation) (Day 11): 1.282 | Fit-3L relative expression (z-transformation) (Day 11): -1.046 | Fractalkine relative expression (z-transformation) (Day 11): 0.2445 | G-CSF relative expression (z-transformation) (Day 11): 1.379 | GM-CSF relative expression (z-transformation) (Day 11): -0.7569 | GRO relative expression (z-transformation) (Day 11): -0.05931 | IFN-a2 relative expression (z-transformation) (Day 11): -0.7423 | IL-1RA relative expression (z-transformation) (Day 11): 1.044 | IL-4 relative expression (z-transformation) (Day 11): 2.047 | IL-6 relative expression (z-transformation) (Day 11): -0.4878 | IL-7 relative expression (z-transformation) (Day 11): 0.613 | IL-8 relative expression (z-transformation) (Day 11): 1.674 | IL-15 relative expression (z-transformation) (Day 11): 1.1283 | IP-10 relative expression (z-transformation) (Day 11): -0.5014 | MCP-1 relative expression (z-transformation) (Day 11): -0.1617 | MCP-3 relative expression (z-transformation) (Day 11): 1.036 | MDC relative expression (z-transformation) (Day 11): -0.8939 | MIP-1a relative expression (z-transformation) (Day 11): -0.2467 | MIP-1b relative expression (z-transformation) (Day 11): -0.2666 | TNFa relative expression (z-transformation) (Day 11): -0.5851 | VEGF relative expression (z-transformation) (Day 11): 0.04572 | EGF relative expression (z-transformation) (Day 14): -0.7709 | Eotaxin relative expression (z-transformation) (Day 14): -0.8142 | FGF-2 relative expression (z-transformation) (Day 14): -0.6405 | Fit-3L relative expression (z-transformation) (Day 14): -1.202 | Fractalkine relative expression (z-transformation) (Day 14): -0.4453 | G-CSF relative expression (z-transformation) (Day 14): 2.694 | GM-CSF relative expression (z-transformation) (Day 14): -0.9022 | GRO relative expression (z-transformation) (Day 14): -0.07849 | IFN-a2 relative expression (z-transformation) (Day 14): 0.3354 | IL-1RA relative expression (z-transformation) (Day 14): 0.4791 | IL-4 relative expression (z-transformation) (Day 14): 0.3542 | IL-6 relative expression (z-transformation) (Day 14): -0.7405 | IL-7 relative expression (z-transformation) (Day 14): -0.2291 | IL-8 relative expression (z-transformation) (Day 14): 1.963 | IL-15 relative expression (z-transformation) (Day 14): 1.049 | IP-10 relative expression (z-transformation) (Day 14): -0.2731 | MCP-1 relative expression (z-transformation) (Day 14): -0.3727 | MCP-3 relative expression (z-transformation) (Day 14): 1.8775 | MDC relative expression (z-transformation) (Day 14): -0.4908 | MIP-1a relative expression (z-transformation) (Day 14): -0.1191 | MIP-1b relative expression (z-transformation) (Day 14): -0.282 | TNFa relative expression (z-transformation) (Day 14): -0.5429 | VEGF relative expression (z-transformation) (Day 14): -0.6644
